{"source": "patent US10660877B2", "about": "(BRISTOL-MYERS SQUIBB COMPANY, priority 2016, dated 2020)", "key": {"[1]": {"tested_on": "TLR7", "test": "In vivo mouse TLR7 PD model (gardiquimod challenge, plasma IL-6)", "parameters": "species or system C57BL/6 mice", "settings": "oral", "protocol": "In Vivo Mouse TLR7 and TLR9 PD Model:\n(§1) Adult male C57BL/6 mice were used for the experiments. Mice (7 to 10 per group) were randomized into different treatment groups based on body weight. Mice from the respective treatment groups were administered orally with vehicle or test compound. Thirty min after the oral administration of vehicle or test compound, mice were challenged with intraperitoneal injection of gardiquimod for TLR7 PD model and CpG-ODN for TLR9 PD model. Ninety minutes after gardiquimod injection and 120 minutes after CpG-ODN injection, mice were bled under isoflurane anaesthesia and plasma IL-6 level was estimated by using commercially available ELISA kit (BD Biosciences). At the end of experiment, mean cytokine data was plotted and one way ANOVA with Dunnett's test was performed to calculate the significance of test compound treated group vs. vehicle control group. Percent inhibition of cytokine induction was calculated for test compound treated group vs vehicle control group."}, "[2]": {"target": "human TLR7 (Homo sapiens (Human), UniProt Q9NYK1)", "sequence (Q9NYK1 27-1049)": "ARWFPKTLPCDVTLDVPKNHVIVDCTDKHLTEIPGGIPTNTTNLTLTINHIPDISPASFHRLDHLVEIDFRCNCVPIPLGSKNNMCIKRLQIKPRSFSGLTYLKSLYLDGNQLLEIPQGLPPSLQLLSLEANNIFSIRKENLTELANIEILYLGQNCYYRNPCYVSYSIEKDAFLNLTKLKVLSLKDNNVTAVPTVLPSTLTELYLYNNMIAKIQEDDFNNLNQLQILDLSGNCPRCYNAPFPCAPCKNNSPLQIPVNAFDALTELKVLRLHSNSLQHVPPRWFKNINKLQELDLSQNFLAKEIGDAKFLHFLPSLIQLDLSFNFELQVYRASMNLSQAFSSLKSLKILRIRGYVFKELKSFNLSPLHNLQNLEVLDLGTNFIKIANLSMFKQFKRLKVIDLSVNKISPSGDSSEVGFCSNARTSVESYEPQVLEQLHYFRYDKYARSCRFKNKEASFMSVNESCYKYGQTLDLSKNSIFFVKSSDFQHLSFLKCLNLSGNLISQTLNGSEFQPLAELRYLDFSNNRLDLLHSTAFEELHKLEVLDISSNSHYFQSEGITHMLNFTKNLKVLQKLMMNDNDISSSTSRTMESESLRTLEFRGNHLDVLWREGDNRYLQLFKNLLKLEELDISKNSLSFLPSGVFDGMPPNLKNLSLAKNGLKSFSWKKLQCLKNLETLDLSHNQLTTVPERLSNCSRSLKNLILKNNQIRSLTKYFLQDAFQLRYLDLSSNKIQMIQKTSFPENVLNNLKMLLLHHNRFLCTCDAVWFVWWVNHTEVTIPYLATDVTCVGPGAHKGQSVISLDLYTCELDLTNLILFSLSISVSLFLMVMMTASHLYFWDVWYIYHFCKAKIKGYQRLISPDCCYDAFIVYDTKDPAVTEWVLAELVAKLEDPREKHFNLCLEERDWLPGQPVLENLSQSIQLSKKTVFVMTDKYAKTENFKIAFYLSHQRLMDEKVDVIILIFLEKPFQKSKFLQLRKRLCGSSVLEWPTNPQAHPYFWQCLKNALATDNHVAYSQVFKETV", "test": "TLR7 inhibition reporter assay (HEK-Blue cells, SEAP reporter, gardiquimod stimulation)", "type": "cell-based", "settings": "HEK-Blue cells overexpressing human TLR7, gardiquimod 7.5 μM"}, "[3]": {"tested_on": "TLR9", "test": "In vivo mouse TLR9 PD model (CpG-ODN challenge, plasma IL-6)", "parameters": "species or system C57BL/6 mice", "settings": "oral", "protocol": "as §1, with “In Vivo Mouse TLR7 and TLR9 PD Model: Adult” for “Adult”"}, "[4]": {"tested_on": "MRL/lpr mice", "test": "MRL/lpr model of systemic lupus erythematosus (proteinuria, urinary NGAL, anti-dsDNA Ab titer, lymphadenopathy)", "type": "in vivo, mouse", "settings": "oral once daily", "protocol": "MRL/lpr Model of Systemic Lupus Erythematosus (SLE) Male MRL/lpr mice of 12-14 weeks age were screened and randomized based on the titers of anti-dsDNA antibodies and urinary NGAL (Neutrophil Gelatinase Associated Lipocalin). Mice were treated orally, once daily for 8 weeks with vehicle or test compound. The effect of test compound on disease severity was assessed by measuring end points including proteinuria, urinary-NGAL, anti-dsDNA Ab titer, and lymphadenopathy. These end points were assessed before the start of treatment and after 4 and 8 weeks of treatment. At the end of experiment, all mice were euthanized by CO2 asphyxiation and kidney samples were subjected for histology. At the end of experiment, one way ANOVA with Dunnett's test was performed to calculate the significance of test compound treated group vs. vehicle control group. Percent reduction in disease severity was calculated for each parameter, for test compound treated group vs vehicle control group."}, "[5]": {"target": "human TLR8 (Homo sapiens (Human), UniProt Q9NR97)", "sequence (Q9NR97 27-1041)": "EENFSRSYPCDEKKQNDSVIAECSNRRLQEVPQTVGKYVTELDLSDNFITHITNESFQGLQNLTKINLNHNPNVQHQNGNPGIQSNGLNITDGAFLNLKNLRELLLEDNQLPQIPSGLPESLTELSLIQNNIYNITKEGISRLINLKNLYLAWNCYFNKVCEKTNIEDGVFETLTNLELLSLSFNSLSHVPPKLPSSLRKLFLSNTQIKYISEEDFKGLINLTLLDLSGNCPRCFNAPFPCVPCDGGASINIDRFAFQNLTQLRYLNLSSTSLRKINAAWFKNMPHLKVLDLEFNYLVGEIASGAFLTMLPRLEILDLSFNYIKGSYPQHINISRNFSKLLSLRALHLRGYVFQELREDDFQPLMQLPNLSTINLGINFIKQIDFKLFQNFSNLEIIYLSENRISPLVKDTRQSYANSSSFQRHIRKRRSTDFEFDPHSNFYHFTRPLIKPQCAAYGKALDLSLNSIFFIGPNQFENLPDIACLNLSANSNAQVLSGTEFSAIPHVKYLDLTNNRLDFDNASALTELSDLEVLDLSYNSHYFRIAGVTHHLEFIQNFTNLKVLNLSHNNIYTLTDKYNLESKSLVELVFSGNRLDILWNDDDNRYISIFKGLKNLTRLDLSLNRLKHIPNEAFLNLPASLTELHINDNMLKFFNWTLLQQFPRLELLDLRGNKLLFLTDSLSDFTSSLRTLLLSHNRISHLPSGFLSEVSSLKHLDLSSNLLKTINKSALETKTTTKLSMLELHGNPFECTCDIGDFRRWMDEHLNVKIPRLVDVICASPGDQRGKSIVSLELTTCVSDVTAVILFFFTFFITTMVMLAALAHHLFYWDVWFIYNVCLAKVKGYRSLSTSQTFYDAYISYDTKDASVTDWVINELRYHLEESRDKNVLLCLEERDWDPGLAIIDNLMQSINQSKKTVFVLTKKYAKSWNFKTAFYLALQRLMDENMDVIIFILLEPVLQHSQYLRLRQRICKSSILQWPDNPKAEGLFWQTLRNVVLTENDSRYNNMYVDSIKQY", "test": "TLR8 inhibition reporter assay (HEK-Blue cells, SEAP reporter, R848 stimulation)", "settings": "read-out: TLR8 IC50, HEK-Blue cells overexpressing human TLR8, R848 15.9 μM"}, "[6]": {"target": "human TLR9 (Homo sapiens (Human), UniProt Q9NR96)", "sequence (Q9NR96 26-1032)": "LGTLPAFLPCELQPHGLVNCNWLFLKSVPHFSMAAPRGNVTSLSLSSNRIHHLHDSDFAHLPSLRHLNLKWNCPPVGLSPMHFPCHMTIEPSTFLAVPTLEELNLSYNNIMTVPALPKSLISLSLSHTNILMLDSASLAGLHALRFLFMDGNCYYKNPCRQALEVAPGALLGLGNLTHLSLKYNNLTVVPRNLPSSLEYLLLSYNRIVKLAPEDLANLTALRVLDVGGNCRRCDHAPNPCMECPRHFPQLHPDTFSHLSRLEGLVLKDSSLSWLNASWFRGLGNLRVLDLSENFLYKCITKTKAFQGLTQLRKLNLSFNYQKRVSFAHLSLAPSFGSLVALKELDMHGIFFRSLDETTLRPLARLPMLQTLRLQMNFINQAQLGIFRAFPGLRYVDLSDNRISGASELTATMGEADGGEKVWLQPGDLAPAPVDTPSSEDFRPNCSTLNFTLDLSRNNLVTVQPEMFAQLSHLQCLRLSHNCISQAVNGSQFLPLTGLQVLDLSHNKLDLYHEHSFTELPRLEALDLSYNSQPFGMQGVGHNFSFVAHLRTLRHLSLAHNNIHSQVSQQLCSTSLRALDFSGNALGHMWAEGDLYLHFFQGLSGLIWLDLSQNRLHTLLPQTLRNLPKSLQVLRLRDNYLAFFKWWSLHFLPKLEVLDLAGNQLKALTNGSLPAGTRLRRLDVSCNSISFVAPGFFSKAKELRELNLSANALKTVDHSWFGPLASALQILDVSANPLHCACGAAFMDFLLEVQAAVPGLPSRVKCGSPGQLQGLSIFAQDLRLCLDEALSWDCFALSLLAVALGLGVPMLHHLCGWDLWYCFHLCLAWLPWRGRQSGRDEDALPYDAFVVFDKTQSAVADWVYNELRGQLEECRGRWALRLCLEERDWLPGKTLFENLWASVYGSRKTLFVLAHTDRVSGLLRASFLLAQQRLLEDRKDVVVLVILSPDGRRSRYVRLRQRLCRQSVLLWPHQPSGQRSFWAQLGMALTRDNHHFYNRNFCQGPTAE", "test": "TLR9 inhibition reporter assay (HEK-Blue cells, SEAP reporter, ODN2006 stimulation)", "settings": "read-out: TLR9 IC50, HEK-Blue cells overexpressing human TLR9, ODN2006 5 nM"}}}
{"smiles": "Cc1cc(-c2[nH]c3ccc(C4CCNCC4)cc3c2C(C)C)cc(C)n1.Cl", "note": "[Example 1, 2-(2,6-dimethylpyridin-4-yl)-3-isopropyl-5-(piperidin-4-yl)-1H-indole hydrochloride]", "values": [{"measurement": "% inhibition of IL6", "setting": "[1]; 0.03 mg/kg", "result": 28, "unit": "%"}, {"measurement": "% inhibition of IL6", "setting": "[1]; 0.05 mg/kg", "result": 66, "unit": "%"}, {"measurement": "% inhibition of IL6", "setting": "[1]; 0.5 mg/kg", "result": 98, "unit": "%"}, {"measurement": "IC50", "setting": "[2]", "result": 0.7, "unit": "nM"}, {"measurement": "% inhibition of IL6", "setting": "[3]; 1 mg/kg", "result": 16, "unit": "%"}, {"measurement": "% inhibition of IL6", "setting": "[3]; 3 mg/kg", "result": 29, "unit": "%"}, {"measurement": "% inhibition of IL6", "setting": "[3]; 10 mg/kg", "result": 33, "unit": "%"}, {"measurement": "% inhibition of IL6", "setting": "[3]; 30 mg/kg", "result": 38, "unit": "%"}, {"measurement": "% inhibition Anti-dsDNA antibody titer", "setting": "[4]; 0.1 mg/kg", "result": 1, "unit": "%"}, {"measurement": "% inhibition IL-10", "setting": "[4]; 0.1 mg/kg", "result": 24, "unit": "%"}, {"measurement": "% inhibition IL-12p40", "setting": "[4]; 0.1 mg/kg", "result": 12, "unit": "%"}, {"measurement": "% inhibition Lymphadenopathy", "setting": "[4]; 0.1 mg/kg", "result": 3, "unit": "%"}, {"measurement": "% inhibition Proteinuria", "setting": "[4]; 0.1 mg/kg", "result": 69, "unit": "%"}, {"measurement": "% inhibition Urinary NGAL", "setting": "[4]; 0.1 mg/kg", "result": 52, "unit": "%"}, {"measurement": "% inhibition Anti-dsDNA antibody titer", "setting": "[4]; 1 mg/kg", "result": 14, "unit": "%"}, {"measurement": "% inhibition IL-10", "setting": "[4]; 1 mg/kg", "result": 32, "unit": "%"}, {"measurement": "% inhibition IL-12p40", "setting": "[4]; 1 mg/kg", "result": 26, "unit": "%"}, {"measurement": "% inhibition Lymphadenopathy", "setting": "[4]; 1 mg/kg", "result": 31, "unit": "%"}, {"measurement": "% inhibition Proteinuria", "setting": "[4]; 1 mg/kg", "result": 92, "unit": "%"}, {"measurement": "% inhibition Urinary NGAL", "setting": "[4]; 1 mg/kg", "result": 69, "unit": "%"}, {"measurement": "% inhibition Anti-dsDNA antibody titer", "setting": "[4]; 5 mg/kg", "result": 20, "unit": "%"}, {"measurement": "% inhibition IL-10", "setting": "[4]; 5 mg/kg", "result": 39, "unit": "%"}, {"measurement": "% inhibition IL-12p40", "setting": "[4]; 5 mg/kg", "result": 30, "unit": "%"}, {"measurement": "% inhibition Lymphadenopathy", "setting": "[4]; 5 mg/kg", "result": 33, "unit": "%"}, {"measurement": "% inhibition Proteinuria", "setting": "[4]; 5 mg/kg", "result": 92, "unit": "%"}, {"measurement": "% inhibition Urinary NGAL", "setting": "[4]; 5 mg/kg", "result": 72, "unit": "%"}, {"measurement": "% inhibition Anti-dsDNA antibody titer", "setting": "[4]; 20 mg/kg", "result": 53, "unit": "%"}, {"measurement": "% inhibition IL-10", "setting": "[4]; 20 mg/kg", "result": 53, "unit": "%"}, {"measurement": "% inhibition IL-12p40", "setting": "[4]; 20 mg/kg", "result": 35, "unit": "%"}, {"measurement": "% inhibition Lymphadenopathy", "setting": "[4]; 20 mg/kg", "result": 53, "unit": "%"}, {"measurement": "% inhibition Proteinuria", "setting": "[4]; 20 mg/kg", "result": 93, "unit": "%"}, {"measurement": "% inhibition Urinary NGAL", "setting": "[4]; 20 mg/kg", "result": 81, "unit": "%"}, {"measurement": "IC50", "setting": "[5]", "result": 3.2, "unit": "nM"}]}
{"smiles": "CNC(=O)CN1CCC(c2ccc3[nH]c(-c4cc(C)nc(C)c4)c(C(C)C)c3c2)CC1", "note": "[Example 309, 2-(4-(2-(2,6-dimethylpyridin-4-yl)-3-isopropyl-1H-indol-5-yl)piperidin-1-yl)-N-methylacetamide]", "values": [{"measurement": "IC50", "setting": "[6]", "result": 789, "unit": "nM"}, {"measurement": "% inhibition of IL6", "setting": "[1]; 0.0005 mg/kg", "result": 12, "unit": "%"}, {"measurement": "% inhibition of IL6", "setting": "[1]; 0.005 mg/kg", "result": 65, "unit": "%"}, {"measurement": "% inhibition of IL6", "setting": "[1]; 0.05 mg/kg", "result": 89, "unit": "%"}, {"measurement": "% inhibition of IL6", "setting": "[1]; 0.25 mg/kg", "result": 91, "unit": "%"}, {"measurement": "IC50", "setting": "[2]", "result": 2, "unit": "nM"}, {"measurement": "IC50", "setting": "[5]", "result": 5.5, "unit": "nM"}]}
